From patent US20190185544A1, “COMPOSITIONS AND METHODS OF MODULATING ABETA PROTEIN” (University of South Florida, priority 2016, published 2019)
“Also recorded” adds a separate entry of the source. Residues, ends and D or L forms follow the SMILES beside them.

What was measured:
[1] = test system: CHO/APPwt cells; assay: Aβ production in CHO/APPwt cells, treatment alone (Aβ1-40, 42 ELISA, 82E1 WB); type: cell-based, Chinese hamster; conditions: for Aβ production (Aβ1-40, 42): serum-free medium, 2 h (ELISA) or 16 h (WB)
Method: Chinese hamster ovary (CHO) cells overexpressing human wild-type amyloid precursor protein (APPwt) (CHO/APPwt cells) were cultured in 96-well plate at about 2×10^4/well in Dulbecco's modified Eagle's medium (DMEM) with 10% fetal bovine serum (FBS), 1 mM sodium pyruvate and 100 U/mL of penicillin/streptomycin for 18 hours.
CHO/APPwt cells were cultured in 96-well plate (about 2×10^4/well) in serum-free medium and treated with ApoE LDLR, FlagApoE LDLR (SEQ ID NO.: 1 with an N-terminal FLAG tag), BiotinApo LDLR (SEQ ID NO.: 1 with an N-terminal Biotin) and 3 lysinesApoE LDLR (3KApoE LDLR (SEQ ID NO.: 2)) at indicated doses for about 2 hours.
The conditioned media and cell lysates were prepared, and subjected to Aβ ELISA and protein assay.
CHO cells overexpressing human wild-type APP (CHO/APPwt) cells were cultured in 96-well plate at 2×10^4/well in Dulbecco's modified Eagle's medium (DMEM) with 10% fetal bovine serum (FBS), 1 mM sodium pyruvate and 100 U/mL of penicillin/streptomycin for 18 hours. […] 82E1 WB analyses as shown below the Aβ ELISA result histograms. The Aβ ELISA results are representative of three independent experiments with each condition triplicated and presented as mean±SD.
(residues 133-152, SEQ ID NO: 1)] as indicated for 2 and 16 hours (h). The conditioned media and cell lysates were analyzed by Aβ1-40, 42 ELISA (FIG. 10A), 82E1 WB analysis (FIG. 10B) and protein assay, respectively. In addition, (FIG. 10C) CHO/APPwt cells were cultured in 96-well plate (2×10^4/well) in serum-free DMEM and treated with FlagApoE-LBDP, BiotinApoE-LBDP and 3 lysineApoE-LBDP (3KApoE-LBDP) in comparing to ApoE-LBDP at indicated doses for 2 hours (h). […] (SEQ ID NO: 2); […]-[…] (SEQ ID NO: 10); Biotin-[…] (SEQ ID NO: 1 with an N-Terminal Biotin).
CHO cells engineered to express human wild-type APP (CHO/APPwt) or Swedish mutant APP (CHO/APPswe) were obtained. These cells were cultured in 96 or 24 well plates at 4×10^4 or 2×10^5 cells/well, respectively, in Dulbecco's modified Eagle's medium (DMEM) with 10% fetal bovine serum, 1 mM sodium pyruvate and 100 U/mL of penicillin/streptomycin (Invitrogen, Thermo Fisher Scientific). In addition, murine N2a cells transfected with APPwt (N2a/APPwt were obtained), SH-SY5Y cells transfected with APPswe and wild-type SH-SY5Y cells (ATCC, Manassas, Va.) were cultured as previously described^42. Primary hN2TM human neurons (Neuromics, Edina, Minn.) were cultured in hN2TM human neuron culture media and primary HCN2 human neurons (ATCC) were cultured in DMEM with 4 mM L-glutamine adjusted to contain 1.5 g/L sodium bicarbonate, 4.5 g/L glucose, fetal bovine serum (10%).
(§1) Aβ1-40, 42 and sAPPα from cell and brain homogenates were detected by Aβ1-40, 42 and sAPPα ELISA kits (IBL-America), strictly following the manufacturer's instructions^43,44.
(§2) WB analyses were performed as previously described^43,44. Briefly, 10% bicine/tris gel containing 8 M urea was used for separation of Aβ1-40, 42 species from brain homogenates or CHO cell conditioned media or lysates, followed by transfer to 0.2 μm pore-size nitrocellulose membrane (Bio-Rad, Hercules, Calif.). The membrane was boiled in PBS for 3 to 5 min before blocking to enhance sensitivity and then incubated with 82E1. For all other proteins detected by WB, 10% tris-SDS gels were used. Densitometry analysis was performed as previously described using a FluorS Multiimager with Quantity One™ software 43.

[2] = test system: CHO/APPwt cells; assay: Inhibition of apoE-/lipoprotein-induced Aβ production in CHO/APPwt cells (Aβ ELISA); type: cell-based, Chinese hamster
Method: CHO/APPwt cells were treated with apoE LDLR binding domain peptide (aa 133-152, ApoEp), FlagApoEp, BiotinApoEp, 3K (lysine) ApoEp, 3D (aspartate) ApoEp or scrambled peptide at 0 to 25 μM, followed after 2 h by analysis of Aβ levels in conditioned media by ELISA (Aβ ELISA, FIGS. 19A and 19C) and after 16 h by analysis of Aβ in cell lysates by Western blot using 82E1 antibody (Aβ WB, FIG. 19B). […] Pre-incubating with HDL has been previously reported to lipidate apoE. Hu astro med was obtained from human astrocytes (CCF-STTG1/ATCC® CRL-1718™) as described previously. […]
CHO cells were also transfected with pCMV6 APP695 or pCMV6 E1 depleted APP695, yielding cells expressing wild type APP695 (CHO/APPwt) or truncated APP695 lacking the N-terminal E1 region (CHO/APPdE1). […] Diagram indicates important domains identified in APP, including N-terminal E1 region (top panel), and APPwt and APPdE1 proteins in cell lysates and conditioned media derived from the transfected CHO cells as determined by WB using 6E10 (middle panels). […] Asterisk indicates P<0.05 compared with the corresponding absence of 22C11, 6H3B5 or 6KApoEp, or with corresponding CHO/APPwt cells, as determined by one-way ANOVA. […]
as §1

[3] = Plasma cholesterol and brain LDLR and ApoE expression in treated 3×Tg-AD and 5×FAD mice; type: in vivo, mouse; conditions: 5×FAD mice treated with 6KApoEp
Method: (§3) Total cell associated cholesterol levels are represented as mean±s.d. (μg/mg of total intracellular protein) from three independent experiments. In addition, total plasma cholesterol levels in 3×Tg-AD mice treated with ApoEp (n=6) and 5×FAD mice treated with 6KApoEp (n=10) or PBS (Ctrl, n=10), as described in FIGS. 25A-26G, and in associated wild-type mice (WT) were analyzed by flourometric cholesterol quantitation kit (FIG. 31B). LDLR (FIG. 31C, top panel) and ApoE (middle panel) expression levels in brain homogenates were also analyzed by WB. […] (*P<0.05) and P>0.0.5, non-significant compared to control treatment.

[4] = test system: CHO/APPwt cells; assay: Total cell associated cholesterol in CHO/APPwt cells; type: cell-based, Chinese hamster; conditions: 6KApoEp 0, 5 and 10 μM overnight
Method: as §3
CHO/APPwt cells were cultured overnight in 6-well plates at 2×10^6 cells/well in serum free DMEM, followed by washing 3 times with ice-cold PBS, lysis by sonication in chloroform:isopropanol:IGEPAL CA-630 (7:11:0.1) and centrifugation. The organic phase was transferred to a new tube, air dried at 50° C. to remove chloroform and diluted 10-fold in cholesterol assay buffer for cholesterol determination by flourometric cholesterol quantitation kit according to manufacturer's instructions (MilliporeSigma).

[5] = biological target: T1, human recombinant sAPPβ (rsAPPβ, without Aβ domain) (human, UniProt P05067 18-671, limits assumed); assay: in vitro incubation 1 h at 37 °C, IP with 6H3B5, WB
T1 construct: domain: sAPPβ (without Aβ domain); Bought protein
T1 sequence (P05067 18-671 limits assumed): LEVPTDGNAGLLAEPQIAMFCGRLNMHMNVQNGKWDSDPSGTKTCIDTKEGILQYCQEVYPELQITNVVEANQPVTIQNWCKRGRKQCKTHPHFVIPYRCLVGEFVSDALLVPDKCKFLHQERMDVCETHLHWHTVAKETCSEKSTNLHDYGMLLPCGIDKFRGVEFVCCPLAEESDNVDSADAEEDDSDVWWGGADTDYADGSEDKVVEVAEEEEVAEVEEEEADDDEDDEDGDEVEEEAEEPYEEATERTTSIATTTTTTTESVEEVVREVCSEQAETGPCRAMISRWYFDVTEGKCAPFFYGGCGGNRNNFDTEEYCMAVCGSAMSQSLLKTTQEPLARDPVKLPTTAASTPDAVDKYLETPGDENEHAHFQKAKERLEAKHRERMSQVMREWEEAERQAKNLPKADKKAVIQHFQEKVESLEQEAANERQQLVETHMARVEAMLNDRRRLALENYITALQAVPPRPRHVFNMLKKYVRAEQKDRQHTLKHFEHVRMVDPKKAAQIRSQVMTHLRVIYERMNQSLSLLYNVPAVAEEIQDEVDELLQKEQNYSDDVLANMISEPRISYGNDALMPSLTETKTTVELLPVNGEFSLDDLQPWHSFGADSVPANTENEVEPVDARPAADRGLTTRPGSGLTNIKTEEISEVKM

[6] = biological target: T2, CHO/APPwt cell conditioned medium-derived sAPPα (cmsAPPα) (human, UniProt P05067 18-687, limits assumed); assay: as above
T2 construct: domain: sAPPα
T2 sequence (P05067 18-687 limits assumed): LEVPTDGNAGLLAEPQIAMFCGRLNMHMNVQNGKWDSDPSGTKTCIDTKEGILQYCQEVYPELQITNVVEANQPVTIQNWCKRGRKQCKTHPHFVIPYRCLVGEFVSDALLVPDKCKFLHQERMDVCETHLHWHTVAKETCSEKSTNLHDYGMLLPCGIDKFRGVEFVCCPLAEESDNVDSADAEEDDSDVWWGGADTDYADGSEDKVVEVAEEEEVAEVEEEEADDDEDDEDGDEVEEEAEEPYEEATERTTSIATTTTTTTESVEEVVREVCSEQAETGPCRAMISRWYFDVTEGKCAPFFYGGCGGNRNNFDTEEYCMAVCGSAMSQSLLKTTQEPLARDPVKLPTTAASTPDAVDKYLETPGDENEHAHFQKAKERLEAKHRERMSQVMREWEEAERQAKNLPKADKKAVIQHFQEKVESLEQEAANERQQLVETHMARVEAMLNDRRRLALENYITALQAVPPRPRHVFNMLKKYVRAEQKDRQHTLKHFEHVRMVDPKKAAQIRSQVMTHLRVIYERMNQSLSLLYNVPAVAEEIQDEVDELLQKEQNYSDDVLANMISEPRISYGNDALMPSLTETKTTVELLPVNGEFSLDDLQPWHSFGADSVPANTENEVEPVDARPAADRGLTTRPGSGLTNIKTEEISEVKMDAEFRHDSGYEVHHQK

[7] = biological target: T3, human recombinant sAPPα (rsAPPα) (human, UniProt P05067 18-687, limits assumed); assay: as above
T3 construct: domain: sAPPα; also called human sAPPα protein
T3 sequence (P05067 18-687 limits assumed): as above

[8] = biological target: T4, human wild-type amyloid precursor protein (APPwt) expressed in CHO/APPwt cells (human, UniProt P05067 18-770); assay: CHO/APPwt cells treated 2 h; IP of cell lysates with 6H3B5 or pN-APP and WB; immunofluorescence
T4 construct: whole, on cells; Full-length APP in cell lysates or on fixed CHO/APPwt cells; also called full-length APP; f-APP
T4 sequence (P05067 18-770): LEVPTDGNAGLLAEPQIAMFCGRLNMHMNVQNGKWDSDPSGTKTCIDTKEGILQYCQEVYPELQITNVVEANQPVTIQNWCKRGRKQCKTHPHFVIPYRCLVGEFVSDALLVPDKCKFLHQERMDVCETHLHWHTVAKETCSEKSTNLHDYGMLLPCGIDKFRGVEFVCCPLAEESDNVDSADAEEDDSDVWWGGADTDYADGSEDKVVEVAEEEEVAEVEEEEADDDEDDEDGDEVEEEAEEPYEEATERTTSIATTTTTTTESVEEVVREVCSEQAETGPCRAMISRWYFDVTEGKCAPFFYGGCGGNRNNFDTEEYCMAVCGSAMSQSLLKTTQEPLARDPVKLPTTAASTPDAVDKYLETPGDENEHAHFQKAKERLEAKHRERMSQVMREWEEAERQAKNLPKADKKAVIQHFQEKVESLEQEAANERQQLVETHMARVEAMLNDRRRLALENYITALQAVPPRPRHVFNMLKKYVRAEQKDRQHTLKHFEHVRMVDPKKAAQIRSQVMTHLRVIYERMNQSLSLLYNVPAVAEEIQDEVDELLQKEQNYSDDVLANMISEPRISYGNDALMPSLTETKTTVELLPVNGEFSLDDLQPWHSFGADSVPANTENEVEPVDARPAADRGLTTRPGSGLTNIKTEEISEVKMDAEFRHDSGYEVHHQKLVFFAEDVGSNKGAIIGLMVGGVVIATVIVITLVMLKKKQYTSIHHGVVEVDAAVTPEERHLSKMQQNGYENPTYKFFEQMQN
Method: as §2, with “described^{43,44}.” for “described^43,44.”, “43. Immunoprecipitation (IP) was performed by first incubating conditioned media or cell lysates with appropriate antibodies and Protein-A/G Mag Sepharose beads (GE Healthcare Life Sciences, Pittsburgh, Pa.) overnight with gentle rocking at 4° C., followed by three washes with binding buffer (50 mM tris, 150 mM NaCl, pH 7.5) and analysis by WB.” for “43.”

[9] = biological target: T5, total secreted APP (t-sAPP) in CHO/APPwt conditioned media (human, UniProt P05067 18-687, limits assumed); assay: CHO/APPwt cells treated 2 h; IP of conditioned media with 6H3B5 or pN-APP and WB
T5 construct: domain: total secreted APP (t-sAPP); Mixture of secreted APP ectodomain forms
T5 sequence (P05067 18-687 limits assumed): as the sequence (P05067 18-687 limits assumed) above
Method: as §2, with “described^{43,44}.” for “described^43,44.”, “43. Immunoprecipitation (IP) was performed by first incubating conditioned media or cell lysates with appropriate antibodies and Protein-A/G Mag Sepharose beads (GE Healthcare Life Sciences, Pittsburgh, Pa.) overnight with gentle rocking at 4° C., followed by three washes with binding buffer (50 mM tris, 150 mM NaCl, pH 7.5) and analysis by WB.” for “43.”

[10] = biological target: T4, human wild-type amyloid precursor …; assay: cell-based or functional assay

**Q.** With “ApoB100: apolipoprotein B, human plasma (Athens Research & Technology)” as the molecule, how does the sAPPα secretion [1] read?
**A.** Its sAPPα secretion is “decreased sAPPα secretion”.

**Q.** What about the “Aβ production (Aβ1-40, 42)” value [1] of the same molecule?
**A.** The value was “increased Aβ1-40, 42 production; also recorded: markedly promote amyloid β protein (Aβ) production”.

**Q.** Which results are given for “KKKLRVRLASHLRKLRKRLLRDA (polypeptide configured to modulate binding of a protein the an ApoE receptor) [3KApoEp, ApoEp with 3 N-terminal lysines]”?
**A.** Aβ production (Aβ1-40, 42) [1]: terminated this amyloidogenic effect; basal and apoE4-induced Aβ production ([2]; peptide 10 μM for 15 min, then with or without hu rec ApoE4 10 μg/mL for 2 hours): moderately; Aβ generation induced by human plasma ApoE3, human recombinant ApoE3 and ApoE4, human plasma LDL and ApoB100 ([2]; pre-treatment at about 10 μM, then inducer for about 2 hours): Markedly Inhibits Aβ Generation

**Q.** For “DYKDDDDK-LRVRLASHLRKLRKRLLRDA (DYKDDDDKLRVRLASHLRKLRKRLLRDA; N-terminal FLAG ApoE recombinant polypeptide) [FlagApoEp, ApoEp modified by N-terminal addition of Flag-Tag]”, which “Aβ production (Aβ1-40, 42)” value [1] is on record?
**A.** Its value is “greatly enhanced the efficacy of ApoEp to increase Aβ1-40, 42 levels”.

**Q.** Which plasma cholesterol levels [3] does the source give for `CC(C)C[C@H](NC(=O)[C@H](CCCNC(=N)N)NC(=O)[C@@H](NC(=O)[C@H](CCCNC(=N)N)NC(=O)[C@H](CC(C)C)NC(=O)[C@H](CCCCN)NC(=O)[C@H](CCCCN)NC(=O)[C@H](CCCCN)NC(=O)[C@H](CCCCN)NC(=O)[C@H](CCCCN)NC(=O)[C@@H](N)CCCCN)C(C)C)C(=O)N[C@@H](C)C(=O)N[C@@H](CO)C(=O)N[C@@H](Cc1c[nH]cn1)C(=O)N[C@@H](CC(C)C)C(=O)N[C@@H](CCCNC(=N)N)C(=O)N[C@@H](CCCCN)C(=O)N[C@@H](CC(C)C)C(=O)N[C@@H](CCCNC(=N)N)C(=O)N[C@@H](CCCCN)C(=O)N[C@@H](CCCNC(=N)N)C(=O)N[C@@H](CC(C)C)C(=O)N[C@@H](CC(C)C)C(=O)N[C@@H](CCCNC(=N)N)C(=O)N[C@@H](CC(=O)O)C(=O)N[C@@H](C)C(=O)O` [6KApoEp] (H-KKKKKKLRVRLASHLRKLRKRLLRDA-OH; N-terminus and C-terminus assumed) here?
**A.** The plasma cholesterol levels was “without altering cell-associated or plasma cholesterol levels”.

**Q.** And the cell-associated cholesterol levels [4]?
**A.** Its cell-associated cholesterol levels is “without altering cell-associated or plasma cholesterol levels”.

B1: 6K (6 lysine peptide) (peptide)
peptide: KKKKKK
notes: Control peptide of six lysines; also called 6K lysine
**Q.** Does B1 bind [5]?
**A.** Result: no binding (tested: 100 nM)

**Q.** Does B1 bind [6]?
**A.** Result: no binding (tested: 100 nM)

**Q.** Does B1 bind [7]?
**A.** Result: no binding (tested: 100 nM)

**Q.** Does B1 bind [8]?
**A.** Result: no binding (tested: 10 µM)

**Q.** Does B1 bind [9]?
**A.** Result: no binding (tested: 10 µM)

B2: 6KApoEp (ApoE LDLR binding domain peptide with 6 N-terminal lysines) (peptide)
peptide: KKKKKKLRVRLASHLRKLRKRLLRDA
**Q.** With B2 as the molecule, how does the “apoE4-induced Aβ production in CHO/APPwt cells (Aβ ELISA and WB), IC50” value [10] read?
**A.** Its value is 320 to 630 nM.
